By T/C is commonly meant the ratio of treated to control.

Each structure is given as a SMILES string. Values joined by “and” are separate entries in the source; they are usually repeats but may differ in a detail not shown here. Equal values may be shown once.

This is an account of results in PubChem BioAssay AID180 (DTP/NCI, 2004).

The test system of this assay is BDF1 mice, Adenocarcinoma 755 s.c., tumor weight T/C. Kind of assay: NCI In Vivo Anticancer Drug Screen. Data for tumor model Adenocarcinoma 755 (subcutaneous) in B6D2F1 (BDF1) mice. The conditions noted are these: endpoint: mean tumor weight, higher = larger tumour. A digest of the protocol:
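In vivo antitumor screen on a transplantable tumor line. Result equals the measure in compound-treated animals divided by the same measure in vehicle controls.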

[1] abbreviates: dose: 25.0 mg/kg/injection, schedule: Q01DX011 (ip), vehicle: saline.
The mark [2] stands for this setting: dose: 0.62 mg/kg/injection, schedule: Q01DX011 (ip), vehicle: carboxymethylcellulose (CMC).
The mark [3] stands for this setting: dose: 3.0 mg/kg/injection, schedule: Q01DX011 (ip), vehicle: methylcellulose (MC).
The mark [4] stands for this setting: dose: 5.0 mg/kg/injection, schedule: Q01DX011 (ip), vehicle: carboxymethylcellulose (CMC).
Where [5] appears, read: dose: 6.0 mg/kg/injection, schedule: Q01DX011 (ip), vehicle: methylcellulose (MC).

As to `O=C(/C=C/C(=O)c1ccccc1)c1ccccc1`, the T/C reads like this: (dose: 65.0 mg/kg/injection, schedule: Q01DX011 (ip), vehicle: other) 76 % of control; (dose: 90.0 mg/kg/injection, schedule: Q01DX011 (ip), vehicle: other) 59 % of control; (dose: 125.0 mg/kg/injection, schedule: Q01DX011 (ip), vehicle: other) 51 % of control.
As to `COc1cc(-c2ccc(Nc3ccccc3C(=O)O)c(OC)c2)ccc1Nc1ccccc1C(=O)O`, the T/C runs as follows: under setting [1], 75 % of control; (dose: 50.0 mg/kg/injection, schedule: Q01DX011 (ip), vehicle: saline) 28 % of control; (dose: 100.0 mg/kg/injection, schedule: Q01DX011 (ip), vehicle: saline) 5 % of control.
Consider `Nc1nc(SC2=NCCN2)c2[nH]cnc2n1`, for which the T/C reads like this: (dose: 0.75 mg/kg/injection, schedule: Q01DX011 (ip), vehicle: carboxymethylcellulose (CMC)) 22 % of control; (dose: 1.5 mg/kg/injection, schedule: Q01DX011 (ip), vehicle: carboxymethylcellulose (CMC)) 6 % of control; (dose: 3.0 mg/kg/injection, schedule: Q01DX011 (ip), vehicle: carboxymethylcellulose (CMC)) 6 % of control; (dose: 90.0 micrograms/kg/injection, schedule: Q01DX011 (ip), vehicle: carboxymethylcellulose (CMC)) 57 % of control; (dose: 187.0 micrograms/kg/injection, schedule: Q01DX011 (ip), vehicle: carboxymethylcellulose (CMC)) 88 % of control; (dose: 370.0 micrograms/kg/injection, schedule: Q01DX011 (ip), vehicle: carboxymethylcellulose (CMC)) 79 % of control. Also, for the setting “dose: 750.0 micrograms/kg/injection, schedule: Q01DX011 (ip), vehicle: carboxymethylcellulose (CMC)”, the T/C was 33 % of control.
For the compound `O=C1CCC(N2C(=O)c3ccccc3C2=O)C(=O)N1` (stereo not drawn), the T/C (dose: 250.0 mg/kg/injection, schedule: Q01DX011 (ip), vehicle: carboxymethylcellulose (CMC)) is 48 % of control and the T/C (dose: 375.0 mg/kg/injection, schedule: Q01DX011 (ip), vehicle: carboxymethylcellulose (CMC)) was 56 % of control.
`NC(Cc1ccc(N(CCCl)CCCl)cc1)C(=O)O` (stereo not drawn): the T/C is, setting by setting: (dose: 0.32 mg/kg/injection, schedule: Q01DX011 (ip), vehicle: carboxymethylcellulose (CMC)) 58 % of control; under setting [2], 87 % of control and 66 % of control; (dose: 0.64 mg/kg/injection, schedule: Q01DX011 (ip), vehicle: carboxymethylcellulose (CMC)) 32 % of control; (dose: 0.83 mg/kg/injection, schedule: Q01DX011 (ip), vehicle: carboxymethylcellulose (CMC)) 46 % of control; (dose: 1.0 mg/kg/injection, schedule: Q01DX011 (ip), vehicle: methylcellulose (MC)) 82 % of control; (dose: 1.28 mg/kg/injection, schedule: Q01DX011 (ip), vehicle: carboxymethylcellulose (CMC)) 23 % of control. The T/C runs as follows: (dose: 1.38 mg/kg/injection, schedule: Q01DX011 (ip), vehicle: carboxymethylcellulose (CMC)) 20 % of control; (dose: 1.5 mg/kg/injection, schedule: Q01DX011 (ip), vehicle: methylcellulose (MC)) 26 % of control; (dose: 1.67 mg/kg/injection, schedule: Q01DX011 (ip), vehicle: carboxymethylcellulose (CMC)) 39 % of control; (dose: 1.73 mg/kg/injection, schedule: Q01DX011 (ip), vehicle: carboxymethylcellulose (CMC)) 19 % of control; (dose: 2.0 mg/kg/injection, schedule: Q01DX011 (ip), vehicle: methylcellulose (MC)) 30 % of control; (dose: 2.3 mg/kg/injection, schedule: Q01DX011 (ip), vehicle: carboxymethylcellulose (CMC)) 23 % of control. Moreover, the T/C is 9 % of control (dose: 2.56 mg/kg/injection, schedule: Q01DX011 (ip), vehicle: carboxymethylcellulose (CMC)); 14 % of control under setting [3]; 9 % of control (dose: 3.35 mg/kg/injection, schedule: Q01DX011 (ip), vehicle: carboxymethylcellulose (CMC)); 12 % of control (dose: 3.45 mg/kg/injection, schedule: Q01DX011 (ip), vehicle: carboxymethylcellulose (CMC)); 12 % of control (dose: 4.0 mg/kg/injection, schedule: Q01DX011 (ip), vehicle: methylcellulose (MC)); 11 % of control and 30 % of control under setting [4]. The T/C is 5 % of control under setting [5]; 5 % of control (dose: 6.25 mg/kg/injection, schedule: Q01DX011 (ip), vehicle: methylcellulose (MC)); 4 % of control (dose: 6.7 mg/kg/injection, schedule: Q01DX011 (ip), vehicle: carboxymethylcellulose (CMC)); 8 % of control (dose: 6.9 mg/kg/injection, schedule: Q01DX011 (ip), vehicle: carboxymethylcellulose (CMC)); 6 % of control (dose: 8.0 mg/kg/injection, schedule: Q01DX011 (ip), vehicle: methylcellulose (MC)); 4 % of control (dose: 10.0 mg/kg/injection, schedule: Q01DX011 (ip), vehicle: carboxymethylcellulose (CMC)).
Consider `CCc1nc(N)nc(N)c1-c1ccc(Cl)cc1`, for which the T/C reads like this: under setting [3], 52 % of control; under setting [5], 38 % of control; (dose: 6.25 mg/kg/injection, schedule: Q01DX011 (ip), vehicle: carboxymethylcellulose (CMC)) 77 % of control; (dose: 11.85 mg/kg/injection, schedule: Q01DX011 (ip), vehicle: carboxymethylcellulose (CMC)) 82 % of control; (dose: 12.0 mg/kg/injection, schedule: Q01DX011 (ip), vehicle: methylcellulose (MC)) 49 % of control; (dose: 12.5 mg/kg/injection, schedule: Q01DX011 (ip), vehicle: carboxymethylcellulose (CMC)) 99 % of control. Besides, the T/C is 116 % of control (dose: 23.7 mg/kg/injection, schedule: Q01DX011 (ip), vehicle: carboxymethylcellulose (CMC)); 115 % of control (dose: 25.0 mg/kg/injection, schedule: Q01DX011 (ip), vehicle: carboxymethylcellulose (CMC)); 62 % of control (dose: 25.0 mg/kg/injection, schedule: Q01DX011 (ip), vehicle: methylcellulose (MC)); 105 % of control (dose: 47.4 mg/kg/injection, schedule: Q01DX011 (ip), vehicle: carboxymethylcellulose (CMC)); 72 % of control (dose: 50.0 mg/kg/injection, schedule: Q01DX011 (ip), vehicle: carboxymethylcellulose (CMC)); 71 % of control (dose: 50.0 mg/kg/injection, schedule: Q01DX011 (ip), vehicle: methylcellulose (MC)). Also, the T/C (dose: 62.5 mg/kg/injection, schedule: Q01DX011 (ip), vehicle: methylcellulose (MC)) was 43 % of control.
As to `Cn1ncc2c([N+](C)(C)C)ncnc21`, the T/C by setting is: under setting [1], 82 % of control; (dose: 75.0 mg/kg/injection, schedule: Q01DX011 (ip), vehicle: saline) 111 % of control.
Regarding `C[C@H]1C[C@H]2[C@@H]3CC[C@](O)(C(=O)CO)[C@@]3(C)C[C@H](O)[C@]2(F)[C@@]2(C)C=CC(=O)C=C12`, the T/C (dose: 7.0 mg/kg/injection, schedule: Q01DX011 (sc), vehicle: steriod suspending solution) is 39 % of control and 49 % of control; the T/C (dose: 30.0 mg/kg/injection, schedule: Q01DX011 (sc), vehicle: steriod suspending solution) was 7 % of control and 16 % of control.
On to `CSc1nc(=O)cc2[nH]c(O)cn12`, for which the T/C was 90 % of control (dose: 30.0 mg/kg/injection, schedule: Q01DX011 (ip), vehicle: carboxymethylcellulose (CMC)); 98 % of control (dose: 60.0 mg/kg/injection, schedule: Q01DX011 (ip), vehicle: carboxymethylcellulose (CMC)); 50 % of control (dose: 120.0 mg/kg/injection, schedule: Q01DX011 (ip), vehicle: carboxymethylcellulose (CMC)); 118 % of control (dose: 240.0 mg/kg/injection, schedule: Q01DX011 (ip), vehicle: carboxymethylcellulose (CMC)).
`Nc1nc(=S)c2[nH]cnc2[nH]1.[Cu+2]`: the T/C is, setting by setting: under setting [2], 98 % of control; (dose: 1.25 mg/kg/injection, schedule: Q01DX011 (ip), vehicle: carboxymethylcellulose (CMC)) 83 % of control; (dose: 2.5 mg/kg/injection, schedule: Q01DX011 (ip), vehicle: carboxymethylcellulose (CMC)) 105 % of control; under setting [4], 59 % of control.
With `O=C(Nc1ccc(C2=NCCN2)cc1)c1cc(Cl)c(C(=O)Nc2ccc(C3=NCCN3)cc2)cc1Cl`, the T/C is, setting by setting: (dose: 15.0 mg/kg/injection, schedule: Q01DX011 (ip), vehicle: methylcellulose (MC)) 105 % of control; (dose: 30.0 mg/kg/injection, schedule: Q01DX011 (ip), vehicle: methylcellulose (MC)) 68 % of control.
`CCCCNC(=O)c1n[se]nc1N`: the T/C runs as follows: (dose: 2.0 mg/kg/injection, schedule: Q01DX011 (ip), vehicle: carboxymethylcellulose (CMC)) 76 % of control; (dose: 4.0 mg/kg/injection, schedule: Q01DX011 (ip), vehicle: carboxymethylcellulose (CMC)) 87 % of control.
